Read-outs that look alike come from different tables or passages of the source. Numbered stars: 1 amine (or outer) side, 2 acyl side, 3 side chain; on linkers, the order of the positions; unused ones are H or OH. Bridge positions count the residues as written; N and C are the ends. Square brackets hold non-standard residues; d marks the D form. Peptide text beside a SMILES is read from it. * marks the point of attachment. Trp(βS-Me,7-OMe) = COc1cccc2c([C@H](C)[C@H](N)C(=O)O)c[nH]c12; Trp(1-CH2COOH) = N[C@@H](Cc1cn(CC(=O)O)c2ccccc12)C(=O)O; Phe(4-CH2SO3H) = N[C@@H](Cc1ccc(CS(=O)(=O)O)cc1)C(=O)O; Phe(4-SO2NH2) = N[C@@H](Cc1ccc(S(N)(=O)=O)cc1)C(=O)O; Trp(7-CN) = N#Cc1cccc2c(C[C@H](N)C(=O)O)c[nH]c12; Trp(7-Cl) = N[C@@H](Cc1c[nH]c2c(Cl)cccc12)C(=O)O; Phe(4-CONH2) = NC(=O)c1ccc(C[C@H](N)C(=O)O)cc1; Phe(4-COOH) = N[C@@H](Cc1ccc(C(=O)O)cc1)C(=O)O; Trp(7-aza) = N[C@@H](Cc1c[nH]c2ncccc12)C(=O)O; X60 = NC(=O)[C@H](O)[C@H](N[*:1])C(=O)[*:2]; 3Pal(6-OMe) = COc1ccc(C[C@H](N)C(=O)O)cn1; Pip(5R-OH) = O=C(O)[C@@H]1CC[C@@H](O)CN1; X1 = O=C([C@@H]1CC[C@H](N[*:1])C1)[*:2]; X45 = O=C([C@H]1CC2(CC2)CN1[*:1])[*:2]; Gly(But-3-enyl) = C=CCC[C@H](N)C(=O)O; Val(3-OH) = CC(C)(O)[C@H](N)C(=O)O; Pip(4-aza) = O=C(O)[C@@H]1CNCCN1; 4Pal = N[C@@H](Cc1ccncc1)C(=O)O; Ethyl(2-NMe3+) = C[N+](C)(C)CC*; NMeE = CN[C@@H](CCC(=O)O)C(=O)O; dHyp = O=C(O)[C@H]1C[C@H](O)CN1; NMeS = CN[C@@H](CO)C(=O)O; αMeS = C[C@](N)(CO)C(=O)O; Carboxymethyl = O=C(O)C*; Nle = CCCC[C@H](N)C(=O)O; X37 = c1cncc(N*)c1; Sar = CNCC(=O)O
What was measured:
[1] = target: T1, TNFα-induced NF-κB signal transduction pathway (TNFR1 signaling) in THP-1 cells (Homo sapiens, UniProt P19438); test: THP-1 Lucia NF-κB reporter cell assay, inhibition of TNFα-induced NF-κB signaling; type: cell-based; conditions: THP-1 NF-κB Lucia reporter cells, 10 ng/mL TNFα, 16-18 h, secreted luciferase, read-out: THP-1 IC50
T1 sequence (P19438 30-455): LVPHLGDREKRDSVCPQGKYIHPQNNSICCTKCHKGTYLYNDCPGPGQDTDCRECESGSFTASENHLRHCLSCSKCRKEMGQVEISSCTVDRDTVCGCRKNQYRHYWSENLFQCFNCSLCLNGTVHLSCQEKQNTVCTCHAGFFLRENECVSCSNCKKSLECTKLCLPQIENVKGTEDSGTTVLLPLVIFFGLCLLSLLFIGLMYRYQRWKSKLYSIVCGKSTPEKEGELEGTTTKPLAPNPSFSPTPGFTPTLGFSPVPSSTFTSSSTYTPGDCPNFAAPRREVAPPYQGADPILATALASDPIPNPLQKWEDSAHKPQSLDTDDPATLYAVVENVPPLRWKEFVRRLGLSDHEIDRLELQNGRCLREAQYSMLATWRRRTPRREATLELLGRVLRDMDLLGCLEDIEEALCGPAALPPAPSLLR
Outline: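 Read-out: secreted Lucia luciferase luminescence (QUANTI-Luc) from supernatant after 16-18 h, 37 °C, 10 ng/mL rhTNFα. Peptide pretreatment 1 h at 37 °C; 20,000 cells/well, selection antibiotics omitted. IC50 via 4-parameter logistic model against min/max controls.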

[2] = target: T2, human soluble TNFR1 (sTNFR1) (Homo sapiens, UniProt P19438); test: Human sTNFR1-peptide displacement assay (LanthaScreen Eu TR-FRET binding assay)
T2 construct: made in house; host or cells: Sf21 (baculovirus)
T2 sequence (P19438 with tags, fused parts or gaps): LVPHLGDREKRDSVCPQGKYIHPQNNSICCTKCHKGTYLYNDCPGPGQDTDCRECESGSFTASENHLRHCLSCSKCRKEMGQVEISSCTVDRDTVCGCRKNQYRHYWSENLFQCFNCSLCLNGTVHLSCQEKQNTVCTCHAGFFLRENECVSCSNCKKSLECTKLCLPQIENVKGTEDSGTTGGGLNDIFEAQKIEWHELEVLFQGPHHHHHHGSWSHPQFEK
Outline: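 Readout is the 665/615 nm TR-FRET ratio (Eu anti-His donor, streptavidin-Alexa647 acceptor), normalized to DMSO and saturating displacer, fit by Morrison-based five-parameter logistic for Kd^app. His-tagged sTNFR1 (1-211) prebound to 100 nM biotinylated peptide SEQ ID NO.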

Structure (SMILES)	IC50 [1] [nM]	Kd [2] [nM]	IC50 [2] [nM]	IC50 ([1]; listed as 284) [nM]
CCCC[C@@H]1NC(=O)[C@@H]2CC[C@@H](C2)NC(=O)[C@H]([C@@H](C)c2c[nH]c3c(OC)cccc23)NC(=O)CN(C)C(=O)[C@H](Cc2ccc(O)cc2)NC(=O)[C@H](Cc2ccc(C(=O)O)cc2)NC(=O)[C@](C)(CO)NC(=O)[C@H](Cc2c[nH]c3c(Cl)cccc23)NC(=O)[C@H](Cc2ccncc2)NC(=O)[C@H](CC(N)=O)NC(=O)[C@H](CCC(=O)O)N(C)C(=O)[C@H](Cc2c[nH]c3ccccc23)NC(=O)[C@@H]2CNCCN2C(=O)[C@H](Cc2ccc(OC)nc2)NC1=O [SEQ ID NO. 241] (cyclo([4Pal][Trp(7-Cl)][αMeS][Phe(4-COOH)]Y[Sar][Trp(βS-Me,7-OMe)][X1][Nle][3Pal(6-OMe)][Pip(4-aza)]W[NMeE]N))	1.4	0.24		
CCCC[C@@H]1NC(=O)[C@@H]2CC[C@@H](C2)NC(=O)[C@H]([C@@H](C)c2c[nH]c3c(OC)cccc23)NC(=O)CN(C)C(=O)[C@H](Cc2ccc(O)cc2)NC(=O)[C@H](Cc2ccc(C(=O)O)cc2)NC(=O)[C@](C)(CO)NC(=O)[C@H](Cc2c[nH]c3c(Cl)cccc23)NC(=O)[C@H](Cc2ccncc2)NC(=O)[C@H](CC(N)=O)NC(=O)[C@H](CCC(=O)O)N(C)C(=O)[C@H](Cc2cn(CC(=O)O)c3ccccc23)NC(=O)[C@@H]2CNCCN2C(=O)[C@H](Cc2ccncc2)NC1=O [SEQ ID NO. 197] (cyclo([4Pal][Trp(7-Cl)][αMeS][Phe(4-COOH)]Y[Sar][Trp(βS-Me,7-OMe)][X1][Nle][4Pal][Pip(4-aza)][Trp(1-CH2COOH)][NMeE]N))	0.7	0.36		
CCCC[C@@H]1NC(=O)[C@@H]2CC[C@@H](C2)NC(=O)[C@H]([C@@H](C)c2c[nH]c3c(OC)cccc23)NC(=O)CN(C)C(=O)[C@H](Cc2ccc(C(N)=O)cc2)NC(=O)[C@H](Cc2ccc(S(N)(=O)=O)cc2)NC(=O)[C@](C)(CO)NC(=O)[C@H](Cc2c[nH]c3c(C#N)cccc23)NC(=O)[C@H](Cc2ccc(C(=O)O)cc2)NC(=O)[C@H](CC(N)=O)NC(=O)[C@H]2C[C@H](OCC[N+](C)(C)C)CN2C(=O)[C@H](Cc2cn(CC(=O)O)c3ccccc23)NC(=O)[C@@H]2CC[C@@H](O)CN2C(=O)[C@H](Cc2ccncc2)NC1=O [SEQ ID NO. 136] (cyclo([4Pal][Pip(5R-OH)][Trp(1-CH2COOH)][dHyp](Ethyl(2-NMe3+))N[Phe(4-COOH)][Trp(7-CN)][αMeS][Phe(4-SO2NH2)][Phe(4-CONH2)][Sar][Trp(βS-Me,7-OMe)][X1][Nle]))	0.4	0.07		
CCCC[C@@H]1NC(=O)CSC[C@@H](C(N)=O)NC(=O)[C@H]([C@@H](C)c2c[nH]c3c(OC)cccc23)NC(=O)CN(C)C(=O)[C@H](Cc2ccc(O)cc2)NC(=O)[C@H](Cc2ccc(C(=O)O)cc2)NC(=O)[C@](C)(CO)NC(=O)[C@H](Cc2c[nH]c3c(Cl)cccc23)NC(=O)[C@H](Cc2ccncc2)NC(=O)[C@H](CC(N)=O)NC(=O)[C@H](CCC(=O)O)N(C)C(=O)[C@H](Cc2c[nH]c3ncccc23)NC(=O)[C@H](C(C)(C)O)NC(=O)[C@H](Cc2ccc(C(N)=O)cc2)NC1=O [SEQ ID NO. 164] ({CH2CO}-[Nle][Phe(4-CONH2)][Val(3-OH)][Trp(7-aza)][NMeE]N[4Pal][Trp(7-Cl)][αMeS][Phe(4-COOH)]Y[Sar][Trp(βS-Me,7-OMe)]C-NH2; thioether N-14)	3.6	0.5	0.6	
CCCC[C@@H]1NC(=O)[C@@H]2CC[C@@H](C2)NC(=O)[C@H]([C@@H](C)c2c[nH]c3c(OC)cccc23)NC(=O)CN(C)C(=O)[C@H](Cc2ccc(C(=O)O)cc2)NC(=O)[C@H](Cc2ccc(C(N)=O)cc2)NC(=O)[C@](C)(CO)NC(=O)[C@H](Cc2c[nH]c3c(C#N)cccc23)NC(=O)[C@H](Cc2ccncc2)NC(=O)[C@H]([C@@H](O)C(N)=O)NC(=O)[C@H]2C[C@H](O)CN2C(=O)[C@H](Cc2c[nH]c3ccccc23)NC(=O)[C@@H]2CC[C@@H](O)CN2C(=O)[C@H](Cc2ccncc2)NC1=O [SEQ ID NO. 78] (cyclo([4Pal][Trp(7-CN)][αMeS][Phe(4-CONH2)][Phe(4-COOH)][Sar][Trp(βS-Me,7-OMe)][X1][Nle][4Pal][Pip(5R-OH)]W[dHyp][X60]))	0.7	0.05		
COc1cccc2c([C@H](C)[C@@H]3NC(=O)CN(C)C(=O)[C@H](Cc4ccc(O)cc4)NC(=O)[C@H](Cc4ccc(C(=O)O)cc4)NC(=O)[C@](C)(CO)NC(=O)[C@H](Cc4c[nH]c5c(Cl)cccc45)NC(=O)[C@H](Cc4ccncc4)NC(=O)[C@H](CC(N)=O)NC(=O)[C@H](CCC(=O)O)N(C)C(=O)[C@H](Cc4c[nH]c5ccccc45)NC(=O)[C@H](CO)N(C)C(=O)[C@H](Cc4ccncc4)NC(=O)[C@H](CCC(=O)Nc4cccnc4)NC(=O)[C@@H]4CC[C@@H](C4)NC3=O)c[nH]c12 [SEQ ID NO. 166] (cyclo([4Pal][NMeS]W[NMeE]N[4Pal][Trp(7-Cl)][αMeS][Phe(4-COOH)]Y[Sar][Trp(βS-Me,7-OMe)][X1]E(X37)))	2.7	0.44	0.5	
CCCC[C@@H]1NC(=O)CSC[C@@H](C(N)=O)NC(=O)[C@H]([C@@H](C)c2c[nH]c3c(OC)cccc23)NC(=O)CN(C)C(=O)[C@H](Cc2ccc(O)cc2)NC(=O)[C@H](Cc2ccc(C(=O)O)cc2)NC(=O)[C@](C)(CO)NC(=O)[C@H](Cc2c[nH]c3c(Cl)cccc23)NC(=O)[C@H](Cc2ccncc2)NC(=O)[C@H](CC(N)=O)NC(=O)[C@H]2CC3(CC3)CN2C(=O)[C@H](Cc2c[nH]c3ccccc23)NC(=O)[C@@H]2CNCCN2C(=O)[C@H](Cc2ccncc2)NC1=O [SEQ ID NO. 167] ({CH2CO}-[Nle][4Pal][Pip(4-aza)]W[X45]N[4Pal][Trp(7-Cl)][αMeS][Phe(4-COOH)]Y[Sar][Trp(βS-Me,7-OMe)]C-NH2; thioether N-14)	2.6	0.48		
CCCC[C@@H]1NC(=O)[C@@H]2CC[C@@H](C2)NC(=O)[C@H]([C@@H](C)c2c[nH]c3c(OC)cccc23)NC(=O)CN(C)C(=O)[C@H](Cc2ccc(C(=O)O)cc2)NC(=O)[C@H](Cc2ccc(C(N)=O)cc2)NC(=O)[C@](C)(CO)NC(=O)[C@H](Cc2c[nH]c3c(C#N)cccc23)NC(=O)[C@H](Cc2ccc(C(=O)O)cc2)NC(=O)[C@H](CC(N)=O)NC(=O)[C@H]2C[C@H](OCC(=O)O)CN2C(=O)[C@H](Cc2c[nH]c3ncccc23)NC(=O)[C@@H]2CC[C@@H](O)CN2C(=O)[C@H](Cc2ccncc2)NC1=O [SEQ ID NO. 284] (cyclo([4Pal][Pip(5R-OH)][Trp(7-aza)][dHyp](Carboxymethyl)N[Phe(4-COOH)][Trp(7-CN)][αMeS][Phe(4-CONH2)][Phe(4-COOH)][Sar][Trp(βS-Me,7-OMe)][X1][Nle]))		0.09		0.8
C=CCC[C@@H]1NC(=O)[C@@H]2CC[C@@H](C2)NC(=O)[C@H]([C@@H](C)c2c[nH]c3c(OC)cccc23)NC(=O)CN(C)C(=O)[C@H](Cc2ccc(C(N)=O)cc2)NC(=O)[C@H](Cc2ccc(C(N)=O)cc2)NC(=O)[C@](C)(CO)NC(=O)[C@H](Cc2c[nH]c3c(Cl)cccc23)NC(=O)[C@H](Cc2ccc(C(=O)O)cc2)NC(=O)[C@H](CC(N)=O)NC(=O)[C@H]2C[C@H](O)CN2C(=O)[C@H](Cc2c[nH]c3ccccc23)NC(=O)[C@@H]2CC[C@@H](O)CN2C(=O)[C@H](Cc2ccncc2)NC1=O [SEQ ID NO. 103] (cyclo([4Pal][Pip(5R-OH)]W[dHyp]N[Phe(4-COOH)][Trp(7-Cl)][αMeS][Phe(4-CONH2)][Phe(4-CONH2)][Sar][Trp(βS-Me,7-OMe)][X1][Gly(But-3-enyl)]))	0.8	0.05		
CCCC[C@@H]1NC(=O)[C@@H]2CC[C@@H](C2)NC(=O)[C@H]([C@@H](C)c2c[nH]c3c(OC)cccc23)NC(=O)CN(C)C(=O)[C@H](Cc2ccc(O)cc2)NC(=O)[C@H](Cc2ccc(C(=O)O)cc2)NC(=O)[C@](C)(CO)NC(=O)[C@H](Cc2c[nH]c3c(Cl)cccc23)NC(=O)[C@H](Cc2ccc(CS(=O)(=O)O)cc2)NC(=O)[C@H](CC(N)=O)NC(=O)[C@H](CCC(=O)O)N(C)C(=O)[C@H](Cc2c[nH]c3ccccc23)NC(=O)[C@@H]2CNCCN2C(=O)[C@H](Cc2ccncc2)NC1=O [SEQ ID NO. 171] (cyclo([4Pal][Pip(4-aza)]W[NMeE]N[Phe(4-CH2SO3H)][Trp(7-Cl)][αMeS][Phe(4-COOH)]Y[Sar][Trp(βS-Me,7-OMe)][X1][Nle]))	0.9	0.19		

— patent publication US20240287138A1, “CYCLIC PEPTIDES FOR INHIBITING TNF RECEPTOR 1 ACTIVITY” (Merck Sharp & Dohme LLC, priority 2023, published 2024)
